Experimental data: US12509444B2, “Compounds and methods for CD73 modulation and indications therefor” (Plexxikon Inc., priority 2019, dated 2025)
pIC50: −log10 of the molar value.

Key:
[1] = molecular target: T1, human CD73 (Homo sapiens, UniProt P21589); assay: Inhibitor activity against CD73 in cell based assay (CD73 expressing CHO-K1 cells); conditions: CHO-K1 cells expressing human CD73, 150 μM AMP, 4 hours of incubation; read-out: CHO-K1 CELL VARIANT: CD73 IC50
T1 construct: expressed in transfected cells
T1 sequence (P21589 27-549): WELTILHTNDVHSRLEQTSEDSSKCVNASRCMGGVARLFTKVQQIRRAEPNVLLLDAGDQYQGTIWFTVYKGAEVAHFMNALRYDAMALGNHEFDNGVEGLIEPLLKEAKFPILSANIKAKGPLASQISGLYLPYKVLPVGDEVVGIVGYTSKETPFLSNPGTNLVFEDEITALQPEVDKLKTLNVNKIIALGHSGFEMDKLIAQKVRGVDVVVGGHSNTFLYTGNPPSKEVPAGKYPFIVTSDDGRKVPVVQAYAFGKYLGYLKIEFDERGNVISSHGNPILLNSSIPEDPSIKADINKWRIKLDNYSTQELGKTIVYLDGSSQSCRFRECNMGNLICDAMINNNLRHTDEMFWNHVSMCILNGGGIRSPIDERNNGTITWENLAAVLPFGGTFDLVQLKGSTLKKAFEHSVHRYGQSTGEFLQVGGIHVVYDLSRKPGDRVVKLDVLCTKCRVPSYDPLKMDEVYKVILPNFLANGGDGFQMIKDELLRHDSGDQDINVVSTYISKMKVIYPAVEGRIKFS
Method in brief: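 Residual supernatant AMP was quantified via CellTiter-Glo luminescence (1 μM ATP added, 30 min, room temperature) after a 4 h exposure of human CD73-expressing CHO-K1 cells to 150 μM AMP plus compound, top final 10 μM, 8 points. IC50 came from nonlinear regression of percent inhibition.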

[2] = molecular target: T2, Human CD73 (amino acid residues 27-549) (Homo sapiens, UniProt P21589); assay: CD73 enzymatic assay (luciferase-based indirect assay, CellTiter-Glo); assay type: biochemical; conditions: 0.4 nM CD73, 150 μM AMP, 1 hour at room temperature
T2 construct: Human CD73 (amino acid residues 27-549); His tag (N); made in house; host or cells: E. coli
T2 sequence (P21589 27-549): T1 sequence (P21589 27-549)
Method in brief: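 Residual AMP inhibits luciferase, so luminescence reports CD73 turnover; read with CellTiter-Glo 2.0 plus 1 μM final ATP, 30 min. Reaction used 0.4 nM N-His CD73 (27-549, E. coli), 150 μM AMP, HEPES pH 7.4 with Tween 20, 1 h at room temperature. IC50 fitted by nonlinear regression.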

## O=C(N[C@@H]1CC[C@H](NS(=O)(=O)c2ccccc2F)C1)O[C@@H]1CCN(c2cn[nH]c(=O)c2Cl)C1 [P-0237, (R)-1-(5-chloro-6-oxo-1,6-dihydropyridazin-4-yl)pyrrolidin-3-yl ((1R,3S)-3-((2-fluorophenyl)sulfonamido)cyclopentyl)carbamate]
[1]
  pIC50: 5.00 to 9.00
[2]
  pIC50: 5.00 to 9.00

## Cn1ncc(N2CC[C@@H](OC(=O)N[C@H]3CC[C@H](NS(=O)(=O)c4c(F)cccc4F)CC3)C2)c(Cl)c1=O [P-0238, (R)-1-(5-chloro-1-methyl-6-oxo-1,6-dihydropyridazin-4-yl)pyrrolidin-3-yl ((1r,4R)-4-((2,6-difluorophenyl)sulfonamido)cyclohexyl)carbamate]
[1]
  pIC50: 5.00 to 9.00
[2]
  pIC50: 5.00 to 9.00

## Cn1ncc(N2CC[C@@H](OC(=O)N[C@H]3CC[C@H](NS(=O)(=O)c4ccccc4Br)CC3)C2)c(Cl)c1=O [P-0239, (R)-1-(5-chloro-1-methyl-6-oxo-1,6-dihydropyridazin-4-yl)pyrrolidin-3-yl ((1r,4R)-4-((2-bromophenyl)sulfonamido)cyclohexyl)carbamate]
[1]
  pIC50: 5.00 to 9.00
[2]
  pIC50: 5.00 to 9.00

## O=C(NCC1CCNCC1)O[C@@H]1CCN(c2cn[nH]c(=O)c2Cl)C1 [P-0240, (R)-1-(5-chloro-6-oxo-1,6-dihydropyridazin-4-yl)pyrrolidin-3-yl (piperidin-4-ylmethyl)carbamate]
[1]
  pIC50: 5.00 to 9.00
[2]
  pIC50: 5.00 to 9.00

## CC(=O)N1CCC(CNC(=O)O[C@@H]2CCN(c3cn[nH]c(=O)c3Cl)C2)CC1 [P-0241, (R)-1-(5-chloro-6-oxo-1,6-dihydropyridazin-4-yl)pyrrolidin-3-yl ((1-acetylpiperidin-4-yl)methyl)carbamate]
[1]
  pIC50: 5.00 to 9.00
[2]
  pIC50: 5.00 to 9.00

## O=CN1CCC(CNC(=O)O[C@@H]2CCN(c3cn[nH]c(=O)c3Cl)C2)CC1 [P-0242, (R)-1-(5-chloro-6-oxo-1,6-dihydropyridazin-4-yl)pyrrolidin-3-yl ((1-formylpiperidin-4-yl)methyl)carbamate]
[1]
  pIC50: 5.00 to 9.00
[2]
  pIC50: 5.00 to 9.00

## O=C(N[C@@H]1CC[C@H](NC(=O)c2ccccc2)C1)O[C@@H]1CCN(c2cn[nH]c(=O)c2Cl)C1 [P-0243, (R)-1-(5-chloro-6-oxo-1,6-dihydropyridazin-4-yl)pyrrolidin-3-yl ((1R,3S)-3-benzamidocyclopentyl) carbamate]
[1]
  pIC50: 5.00 to 9.00
[2]
  pIC50: 5.00 to 9.00

## COC(=O)Cn1ncc(N2CC[C@@H](OC(=O)NC3CCC(F)(F)CC3)C2)c(Cl)c1=O [P-0244, methyl (R)-2-(5-chloro-4-(3-(((4,4-difluorocyclohexyl)carbamoyl)oxy)pyrrolidin-1-yl)-6-oxopyridazin-1(6H)-yl)acetate]
[1]
  pIC50: 4.00 to 5.00
[2]
  pIC50: 5.00 to 9.00

## COCCn1ncc(N2CC[C@@H](OC(=O)NC3CCC(F)(F)CC3)C2)c(Cl)c1=O [P-0245, (R)-1-(5-chloro-1-(2-methoxyethyl)-6-oxo-1,6-dihydropyridazin-4-yl)pyrrolidin-3-yl (4,4-difluorocyclohexyl)carbamate]
[1]
  pIC50: 4.00 to 5.00
[2]
  pIC50: 5.00 to 9.00

## O=C(NC1CCC(F)(F)CC1)O[C@@H]1CCN(c2cnn(CC(O)CO)c(=O)c2Cl)C1 (stereo partly drawn) [P-0246, (3R)-1-(5-chloro-1-(2,3-dihydroxypropyl)-6-oxo-1,6-dihydropyridazin-4-yl)pyrrolidin-3-yl (4,4-difluorocyclohexyl)carbamate]
[1]
  pIC50: 5.00 to 9.00
[2]
  pIC50: 5.00 to 9.00

## CCS(=O)(=O)N[C@H]1CC[C@H](NC(=O)O[C@@H]2CCN(c3cn[nH]c(=O)c3Cl)C2)CC1 [P-0247, (R)-1-(5-chloro-6-oxo-1,6-dihydropyridazin-4-yl)pyrrolidin-3-yl ((1r,4R)-4-(ethylsulfonamido)cyclohexyl) carbamate]
[1]
  pIC50: 5.00 to 9.00
[2]
  pIC50: 5.00 to 9.00

## N#Cc1ccc(S(=O)(=O)N[C@H]2CC[C@H](NC(=O)O[C@@H]3CCN(c4cn[nH]c(=O)c4Cl)C3)CC2)cc1 [P-0248, (R)-1-(5-chloro-6-oxo-1,6-dihydropyridazin-4-yl)pyrrolidin-3-yl ((1r,4R)-4-((4-cyanophenyl)sulfonamido)cyclohexyl)carbamate]
[1]
  pIC50: 5.00 to 9.00
[2]
  pIC50: 5.00 to 9.00

## Cc1cccc(S(=O)(=O)N[C@H]2CC[C@H](NC(=O)O[C@@H]3CCN(c4cn[nH]c(=O)c4Cl)C3)CC2)c1 [P-0249, (R)-1-(5-chloro-6-oxo-1,6-dihydropyridazin-4-yl)pyrrolidin-3-yl ((1r,4R)-4-((3-methylphenyl)sulfonamido)cyclohexyl)carbamate]
[1]
  pIC50: 5.00 to 9.00
[2]
  pIC50: 5.00 to 9.00

## Cc1ccccc1S(=O)(=O)N[C@H]1CC[C@H](NC(=O)O[C@@H]2CCN(c3cn[nH]c(=O)c3Cl)C2)CC1 [P-0250, (R)-1-(5-chloro-6-oxo-1,6-dihydropyridazin-4-yl)pyrrolidin-3-yl ((1r,4R)-4-((2-methylphenyl)sulfonamido)cyclohexyl)carbamate]
[1]
  pIC50: 5.00 to 9.00
[2]
  pIC50: 5.00 to 9.00

## COc1ccc(S(=O)(=O)N[C@H]2CC[C@H](NC(=O)O[C@@H]3CCN(c4cn[nH]c(=O)c4Cl)C3)CC2)cc1 [P-0251, (R)-1-(5-chloro-6-oxo-1,6-dihydropyridazin-4-yl)pyrrolidin-3-yl ((1r,4R)-4-((4-methoxyphenyl)sulfonamido)cyclohexyl)carbamate]
[1]
  pIC50: 5.00 to 9.00
[2]
  pIC50: 5.00 to 9.00

## COc1ccc(S(=O)(=O)N[C@H]2CC[C@H](NC(=O)O[C@@H]3CCN(c4cn[nH]c(=O)c4Cl)C3)CC2)cn1 [P-0252, (R)-1-(5-chloro-6-oxo-1,6-dihydropyridazin-4-yl)pyrrolidin-3-yl ((1r,4R)-4-((6-methoxypyridine)-3-sulfonamido)cyclohexyl) carbamate]
[1]
  pIC50: 5.00 to 9.00
[2]
  pIC50: 5.00 to 9.00

## O=C(N[C@H]1CC[C@H](NS(=O)(=O)c2ccc(C(F)(F)F)nc2)CC1)O[C@@H]1CCN(c2cn[nH]c(=O)c2Cl)C1 [P-0253, (R)-1-(5-chloro-6-oxo-1,6-dihydropyridazin-4-yl)pyrrolidin-3-yl ((1r,4R)-4-((6-(trifluoromethyl)pyridine)-3-sulfonamido)cyclohexyl) carbamate]
[1]
  pIC50: 5.00 to 9.00
[2]
  pIC50: 5.00 to 9.00

## O=C(N[C@H]1CC[C@H](NS(=O)(=O)c2ccc(C(F)(F)F)cc2)CC1)O[C@@H]1CCN(c2cn[nH]c(=O)c2Cl)C1 [P-0254, (R)-1-(5-chloro-6-oxo-1,6-dihydropyridazin-4-yl)pyrrolidin-3-yl ((1r,4R)-4-((4-(trifluoromethyl)phenyl)sulfonamido)cyclohexyl)carbamate]
[1]
  pIC50: 5.00 to 9.00
[2]
  pIC50: 5.00 to 9.00

## Cn1cc(S(=O)(=O)N[C@H]2CC[C@H](NC(=O)O[C@@H]3CCN(c4cn[nH]c(=O)c4Cl)C3)CC2)cn1 [P-0255, (R)-1-(5-chloro-6-oxo-1,6-dihydropyridazin-4-yl)pyrrolidin-3-yl ((1r,4R)-4-((1-methyl-1H-pyrazole)-4-sulfonamido)cyclohexyl) carbamate]
[1]
  pIC50: 5.00 to 9.00
[2]
  pIC50: 5.00 to 9.00

## O=C(N[C@H]1CC[C@H](NC(=O)c2cccnc2)CC1)O[C@@H]1CCN(c2cn[nH]c(=O)c2Cl)C1 [P-0256, (R)-1-(5-chloro-6-oxo-1,6-dihydropyridazin-4-yl)pyrrolidin-3-yl ((1r,4R)-4-(nicotinamido)cyclohexyl) carbamate]
[1]
  pIC50: 5.00 to 9.00
[2]
  pIC50: 5.00 to 9.00

## O=C(N[C@H]1CC[C@H](NC(=O)C2CC2)CC1)O[C@@H]1CCN(c2cn[nH]c(=O)c2Cl)C1 [P-0257, (R)-1-(5-chloro-6-oxo-1,6-dihydropyridazin-4-yl)pyrrolidin-3-yl ((1r,4R)-4-(cyclopropanecarboxamido)cyclohexyl)carbamate]
[1]
  pIC50: 5.00 to 9.00
[2]
  pIC50: 5.00 to 9.00

## O=C(N[C@H]1CC[C@H](NC(=O)C2CCC2)CC1)O[C@@H]1CCN(c2cn[nH]c(=O)c2Cl)C1 [P-0258, (R)-1-(5-chloro-6-oxo-1,6-dihydropyridazin-4-yl)pyrrolidin-3-yl ((1r,4R)-4-(cyclobutanecarboxamido)cyclohexyl)carbamate]
[1]
  pIC50: 5.00 to 9.00
[2]
  pIC50: 5.00 to 9.00

## O=C(N[C@H]1CC[C@H](NC(=O)C2CCCC2)CC1)O[C@@H]1CCN(c2cn[nH]c(=O)c2Cl)C1 [P-0259, (R)-1-(5-chloro-6-oxo-1,6-dihydropyridazin-4-yl)pyrrolidin-3-yl ((1r,4R)-4-(cyclopentanecarboxamido)cyclohexyl)carbamate]
[1]
  pIC50: 5.00 to 9.00
[2]
  pIC50: 5.00 to 9.00

## O=C(N[C@H]1CC[C@H](NC(=O)c2ccccn2)CC1)O[C@@H]1CCN(c2cn[nH]c(=O)c2Cl)C1 [P-0260, (R)-1-(5-chloro-6-oxo-1,6-dihydropyridazin-4-yl)pyrrolidin-3-yl ((1r,4R)-4-(picolinamido)cyclohexyl) carbamate]
[1]
  pIC50: 5.00 to 9.00
[2]
  pIC50: 5.00 to 9.00
